# How the values were obtained:
# [1] = system: DMD myotubes; experiment: Spontaneous calcium activity (calcium waves) in DMD patient myotubes, Fluo-4 AM, confocal microscopy; type: cell-based, human; conditions: for reduction in the amplitude of the calcium waves (oscillations): 100 μM; for reduction in the number of myotubes with spontaneous calcium activity: DMD myotubes preincubated, 100 μM (FIG. 5D, 8D)
# From the text: (A) Characterization of spontaneous calcium waves in DMD myotubes. Healthy myotubes mostly show low activity (13% of myotubes), while 49% of untreated DMD myotubes show significant spontaneous calcium activity. The amplitude of calcium oscillations in untreated DMD myotubes is increased by 60% compared with healthy myotubes. (B) Examples of trace recordings of a representative region of interest in myotubes and DMDs. (C) Amplitude of spontaneous calcium oscillations in DMD myotube cultures in the presence of modulators of the CD38 enzyme pathway. […] Similarly, 8-Bromo-cADPR (cADPR antagonist, 100 μM, n=48) and NED-19 (NAADP antagonist, 100 μM, n=167) reduce by 40% the amplitude of calcium oscillations in DMD myotubes. […] The t-test was used with a significance level set at 0.05, with a *P<0.05; **P<0.01, ***P<0.001, n=cell number.
# (A) DMD myotubes loaded with a calcium probe (Fluo 4). Examples of trace recordings of a representative region of interest in control DMD myotubes (B) and treated for 30 min with NAADP (100 μM) (C). […] The chi square (proportion of active cells) and t-test (mean peak amplitude) were used with a significance level set at 0.05, with a *P<0.05 ***P<0.001.
# In parallel with mouse cardiomyocyte studies, two lines of human skeletal myotubes (a patient cell line with DMD and a control line) were used. Human myotubes are particularly suitable for evaluating a pharmacological tool from a therapy perspective. The inventors first tested the CZ-27, the NED-19 antagonist of NAADP (the most efficient messenger produced by CD38), and 8-bromo-cADP-ribose (a cADP-ribose antagonist produced by CD38. The cells were loaded with Fluo-4 AM and recorded by confocal microscopy.
# The amplitude of the calcium waves was reduced by 40% (see FIG. 5A) compared to that of the untreated DMD myotubes. […] A 40% reduction in the amplitude of the calcium waves is also observed when the cells are treated with 100 μM of 8-Bromo-cADPR or NED-19 (see FIG. 5C). When cultures of DMD myotubes were preincubated with NED-19, the number of myotubes with spontaneous calcium activity was reduced in a dose-dependent manner for concentrations of 2 to 300 μM (60% to 100 μM reduction) (see FIG. 5D). In addition, when cultures of DMD myotubes were preincubated with NAADP at 100 μM, the number of myotubes with spontaneous calcium activity was reduced (75% reduction with 100 μM NAADP) (see FIG. 8D).
# [2] = system: mdx mouse cardiomyocytes; experiment: Spontaneous calcium activity (spikes and calcium waves) of mdx mouse cardiomyocytes; type: cell-based
# From the text: FIG. 4: Frequency of spontaneous spikes and calcium waves in WT, mdx and mdx/CD38^−/− mouse cardiomyocytes. 1-way-ANOVA test with a Bonferroni correction. Significance level set at 0.05, with a *P<0.05; **P<0.01, ***P<0.001. (A) The spontaneous calcium activity of cardiomyocytes (calcium spikes and waves) of the mdx/CD38^−/− mouse is reduced by 80% compared to the values of mdx mice. (B) The application of the CD38 CZ-27 antagonist to mdx mouse cardiomyocytes reduces the frequency of spikes by about 70%.
# Evaluation of the Spontaneous Calcium Activity of Mouse Cardiomyocytes:
# In the mdx cardiomyocyte, it was shown that the calcium reserves of the sarcoplasmic reticulum were reduced, probably due to Ca^2+ leakage through RyRs that are abnormally sensitized.
# In order to study the impact of the absence of CD38 on these parameters, the different parameters of spontaneous spike activity and calcium waves were studied. […] The increased frequency of these spontaneous calcium events may lead to arrhythmias (when they spread to the whole heart tissue) as well as to a long-term cardiac hypertrophy associated with a change in the Ca^2+-dependent gene expression.
# The protective effect of the CD38 deletion in mice was then observed by comparing cardiomyocytes of the double-mutant model with cardiomyocytes of mdx mice. The spontaneous calcium activity of mdx/CD38^−/− cardiomyocytes is very small compared to mdx (spikes and calcium waves, see FIG. 4A). […] CD38 deletion in mdx/CD38^−/− favor its protective role in DMD, with the reversal of many deleterious parameters in mdx mice (spontaneous calcium spikes and waves, sensitization of RyRs).
# [3] = DMD myotubes, vs untreated DMD myotubes (FIG. 5C)
structure (smiles),measurement,setting,value
"N=c1c2nc(Br)n3c2ncn1[C@H]1O[C@H](COP(=O)(O)OP(=O)(O)OC[C@H]2O[C@@H]3C(O)C2O)C(O)C1O (some centres unmarked) [8-Bromo-cADPR, 8-bromo adenosine diphosphate cyclic ribose]",reduction in the amplitude of the calcium waves (oscillations),[1]; [3],40%
"CCCCOP(=O)(O)OC[C@@H]1O[C@H]([n+]2cccc(C(N)=O)c2)C(F)C1O (stereo partly drawn) [CZ-27, 2′-deoxy-2′-fluoro-β-nicotinamide arabinofuranoside-5′-(n-butyl) phosphate]",amplitude of spontaneous calcium oscillations,[1]; DMD myotubes (FIG. 5C),strongly reduces
same,"reduction in the amplitude of the calcium waves, dose-dependent","[1]; DMD myotubes preincubated with 10, 50 and 100 μM, vs untreated DMD myotubes (FIG. 5C)",up to 80%
same,frequency of spontaneous calcium spikes,[2]; mdx mouse cardiomyocytes (FIG. 4B),reduction in spikes frequency
same,reduction of the frequency of spontaneous calcium spikes,"[2]; mdx mouse cardiomyocytes, application of the compound (FIG. 4B)",about 70%
"Nc1ncnc2c1ncn2[C@@H]1O[C@H](COP(=O)(O)OP(=O)(O)OC[C@H]2O[C@@H]([n+]3cccc(C(=O)[O-])c3)[C@H](O)[C@@H]2O)[C@@H](O)[C@H]1OP(=O)(O)O [NAADP, nicotinic acid adenine dinucleotide phosphate]",reduction in the number of myotubes with spontaneous calcium activity,[1],75%
same,percentage of cells exhibiting spontaneous calcium activity,"[1]; DMD myotubes treated 30 min, 100 μM (FIG. 8D)",greatly reduced
same,amplitude of the spontaneous calcium oscillations,"[1]; DMD myotubes treated 30 min, 100 μM (FIG. 8E)",strongly reduced
"COc1ccc([C@H]2N[C@H](C(=O)O)Cc3c2[nH]c2ccccc32)cc1CN1CCN(c2ccccc2F)CC1 [NED-19, (1R, 3S)-1-[3-[[4-(2-fluorophenyl)piperazin-1-yl]methyl]-4-methoxyphenyl]-2,3,4,9-tetrahydro-1H-pyrido[3,4-b]indole-3-carboxylic acid]",reduction in the number of myotubes with spontaneous calcium activity,[1],60%
same,reduction in the amplitude of the calcium waves (oscillations),[1]; [3],40%
same,percentage of cells with spontaneous calcium activity,"[1]; DMD myotubes, 2-300 μM (FIG. 5D)",strongly reduced dose-dependently
same,reduction in spontaneous calcium wave activity,[2]; mdx mouse cardiomyocytes (FIG. 4C),about 90%
same,number of cardiomyocytes exhibiting spontaneous calcium activity,[2]; mdx mouse cardiomyocytes incubated with compound (not shown),significant reduction
same,frequency of spontaneous calcium waves,"[2]; mdx mouse cardiomyocytes, rare cases of spontaneous activity in presence of compound (FIG. 4C)",greatly reduced

# From patent US11253535B2, “Carboline derivatives or phosphorous derivatives for the treatment of muscular myopathies and traumatic injuries to muscles” (Centre National de la Recherche Scientifique (C.N.R.S), priority 2015, dated 2022)
